# In PubChem BioAssay (NCI):
#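 How tested: cells in 96-well plates exposed to compound for 48 hours at five concentrations. The concentration for full growth arrest is given as TGI.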
# Key:
# Assay in all cases: NCI-60 cell line screen, 48 h
# [1] = tested on: 786-0 renal
# [2] = tested on: A498 renal
# [3] = tested on: A549 NSCLC
# [4] = tested on: ACHN renal
# [5] = tested on: BT-549 breast
# [6] = tested on: CAKI-1 renal
# [7] = tested on: CCRF-CEM leukemia
# [8] = tested on: COLO 205 colon
# [9] = tested on: DU-145 prostate
# [10] = tested on: EKVX NSCLC
# [11] = tested on: HCT-116 colon
# [12] = tested on: HCT-15 colon
# [13] = tested on: HL-60(TB) leukemia
# [14] = tested on: HOP-62 NSCLC
# [15] = tested on: HOP-92 NSCLC
# [16] = tested on: HS 578T breast
# [17] = tested on: HT29 colon
# [18] = tested on: IGROV1 ovarian
# [19] = tested on: K-562 leukemia
# [20] = tested on: KM12 colon
# [21] = tested on: LOX IMVI melanoma
# [22] = tested on: M14 melanoma
# [23] = tested on: MALME-3M melanoma
# [24] = tested on: MCF7 breast
# [25] = tested on: MDA-MB-231 breast
# [26] = tested on: MDA-MB-435
# [27] = tested on: MDA-N
# [28] = tested on: MOLT-4 leukemia
# [29] = tested on: NCI-H226 lung
# [30] = tested on: NCI-H23 lung
# [31] = tested on: NCI-H460 lung
# [32] = tested on: NCI-H522 lung
# [33] = tested on: NCI/ADR-RES ovarian
# [34] = tested on: OVCAR-3 ovarian
# [35] = tested on: OVCAR-4 ovarian
# [36] = tested on: OVCAR-5 ovarian
# [37] = tested on: OVCAR-8 ovarian
# [38] = tested on: PC-3 prostate
# [39] = tested on: RPMI-8226 leukemia
# [40] = tested on: RXF 393 renal
# [41] = tested on: SF-268 CNS
# [42] = tested on: SF-295 CNS
# [43] = tested on: SF-539 CNS
# [44] = tested on: SK-MEL-2 melanoma
# [45] = tested on: SK-MEL-28 melanoma
# [46] = tested on: SK-MEL-5 melanoma
# [47] = tested on: SK-OV-3 ovarian
# [48] = tested on: SN12C renal
# [49] = tested on: SNB-19 CNS
# [50] = tested on: SNB-75 CNS
# [51] = tested on: SW-620 colon
# [52] = tested on: T-47D breast
# [53] = tested on: TK-10 renal
# [54] = tested on: U251 CNS
# [55] = tested on: UACC-257 melanoma
# [56] = tested on: UACC-62 melanoma
# [57] = tested on: UO-31 renal
structure (smiles),measurement,setting,value
Nc1nc(N)c(N=Nc2ccc([As](=O)(O)O)c(O)c2)c(N)n1,TGI,[1],> 100 µM
same,TGI,[2],> 100 µM
same,TGI,[3],> 100 µM
same,TGI,[4],> 100 µM
same,TGI,[5],> 100 µM
same,TGI,[6],> 100 µM
same,TGI,[7],> 19.7 µM
same,TGI,[8],> 100 µM
same,TGI,[9],38.1 µM
same,TGI,[10],> 100 µM
same,TGI,[11],> 33.7 µM
same,TGI,[12],> 100 µM
same,TGI,[13],13.2 µM
same,TGI,[14],> 100 µM
same,TGI,[15],> 100 µM
same,TGI,[16],> 77.3 µM
same,TGI,[17],> 100 µM
same,TGI,[18],> 100 µM
same,TGI,[19],> 100 µM
same,TGI,[20],> 100 µM
same,TGI,[21],> 100 µM
same,TGI,[22],> 100 µM
same,TGI,[23],> 100 µM
same,TGI,[24],> 100 µM
same,TGI,[25],> 100 µM
same,TGI,[26],6.37 µM
same,TGI,[27],5.29 µM
same,TGI,[28],> 48.3 µM
same,TGI,[29],> 100 µM
same,TGI,[30],> 100 µM
same,TGI,[31],> 28.1 µM
same,TGI,[32],> 31 µM
same,TGI,[33],> 100 µM
same,TGI,[34],> 64.2 µM
same,TGI,[35],> 100 µM
same,TGI,[36],> 100 µM
same,TGI,[37],> 100 µM
same,TGI,[38],> 100 µM
same,TGI,[39],> 33.8 µM
same,TGI,[40],> 29.8 µM
same,TGI,[41],> 100 µM
same,TGI,[42],> 100 µM
same,TGI,[43],> 56.8 µM
same,TGI,[44],> 59.9 µM
same,TGI,[45],> 100 µM
same,TGI,[46],> 100 µM
same,TGI,[47],> 100 µM
same,TGI,[48],> 26.8 µM
same,TGI,[49],> 100 µM
same,TGI,[50],> 89.5 µM
same,TGI,[51],> 100 µM
same,TGI,[52],> 100 µM
same,TGI,[53],> 51.8 µM
same,TGI,[54],> 100 µM
same,TGI,[55],> 100 µM
same,TGI,[56],> 100 µM
same,TGI,[57],> 100 µM
